Data as given in ChEMBL document CHEMBL3797129, “Dysiherbols A-C and Dysideanone E, Cytotoxic and NF-κB Inhibitory Tetracyclic Meroterpenes from a Dysidea sp. Marine Sponge” (J Nat Prod, 2016).

Key:
[1] = Cytotoxicity against human NCI-H929 cells after 48 hrs by MTS assay; type: functional, cell-based; conditions: NCI-H929, 48 h
[2] = Inhibition of TNF alpha-induced NF-kappaB (unknown origin) activation in HEK293 cells after 6 hrs by luciferase reporter gene assay; type: cell-based; conditions: Homo sapiens, HEK293, 6 h

| IC50 [2] [µM] | SMILES | IC50 [1] [µM] |
| --- | --- | --- |
| 5.9 | C[C@@H]1CC[C@]2(C)[C@@]3(CC[C@H](O)[C@]2(C)O)c2c(O)ccc(O)c2C[C@@]13C | 15 |
| 0.49 | C[C@@H]1CC[C@]2(C)[C@@]3(CCC[C@]2(C)O)c2c(O)ccc(O)c2C[C@@]13C | 0.58 |
| 6.4 | C[C@@H]1CC[C@]2(C)[C@@]3(CCC(=O)[C@]2(C)O)c2c(O)ccc(O)c2C[C@@]13C | 12 |
| > 10 | CC1=CCC[C@H]2[C@](C)(Cc3cc(O)ccc3O)[C@@H](C)CC[C@]12C [AVAROL] | 3.32 |
| > 10 | C=C1CC[C@H]2[C@H]3[C@](C)(CC4=CC(=O)C=C[C@@]42O)[C@@H](C)CC[C@]13C | 25 |

| SMILES | IC50 [2] [µM] | IC50 [1] [µM] |
| --- | --- | --- |
| COc1ccc([C@@]23Oc4cc(OC)cc(OC)c4[C@]2(O)[C@H](O)[C@H](C(=O)N(C)C)[C@H]3c2ccccc2)cc1 [ROCAGLAMIDE] | 2.6 | 3.9 |
